# Measurements from publication PMC5431432, “Low-basicity 5-HT7 Receptor Agonists Synthesized Using the van Leusen Multicomponent Protocol” (Scientific Reports, 2017).
# pEC50, pIC50, pKi: −log10 of the molar value. Where two headings read alike, the source gives them in different places.
# How the values were obtained:
# human serotonin 5-HT1AR = biological target: T1, human serotonin 5-HT1AR (Homo sapiens, UniProt P08908); assay: Radioligand binding, [3H]-8-OH-DPAT displacement; details: Fig. 2; read-out: pKi 5-HT1A (converted)
# T1 sequence (P08908 1-422): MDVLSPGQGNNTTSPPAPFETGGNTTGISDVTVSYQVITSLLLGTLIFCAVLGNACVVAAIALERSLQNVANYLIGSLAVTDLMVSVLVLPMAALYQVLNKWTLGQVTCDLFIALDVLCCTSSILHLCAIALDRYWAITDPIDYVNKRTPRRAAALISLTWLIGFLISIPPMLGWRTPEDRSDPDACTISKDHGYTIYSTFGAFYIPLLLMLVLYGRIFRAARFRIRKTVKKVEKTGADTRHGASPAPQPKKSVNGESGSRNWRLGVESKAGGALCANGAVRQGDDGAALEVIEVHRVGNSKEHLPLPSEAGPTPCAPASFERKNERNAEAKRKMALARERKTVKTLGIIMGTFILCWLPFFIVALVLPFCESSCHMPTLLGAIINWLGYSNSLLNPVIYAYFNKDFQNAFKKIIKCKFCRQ
# [1] = biological target: T2, human serotonin 5-HT2A receptor (Homo sapiens, UniProt P28223); assay: Radioligand binding, [3H]-ketanserin displacement; details: Fig. 2; read-out: pKi 5-HT2A (converted)
# T2 construct: host or cells: CHO-K1
# T2 sequence (P28223 whole entry): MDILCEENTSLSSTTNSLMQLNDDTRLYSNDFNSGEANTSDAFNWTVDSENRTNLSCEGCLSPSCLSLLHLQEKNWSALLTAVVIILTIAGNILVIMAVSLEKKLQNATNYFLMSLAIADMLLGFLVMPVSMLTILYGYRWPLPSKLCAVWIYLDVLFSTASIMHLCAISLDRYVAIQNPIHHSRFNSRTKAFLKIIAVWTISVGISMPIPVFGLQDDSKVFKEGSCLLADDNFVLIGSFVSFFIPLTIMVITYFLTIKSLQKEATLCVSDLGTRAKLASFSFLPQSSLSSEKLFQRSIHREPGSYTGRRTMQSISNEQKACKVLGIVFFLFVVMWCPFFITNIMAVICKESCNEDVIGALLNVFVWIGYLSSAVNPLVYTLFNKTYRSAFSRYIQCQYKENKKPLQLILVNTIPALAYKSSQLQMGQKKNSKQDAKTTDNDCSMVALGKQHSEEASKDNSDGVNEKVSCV
# human serotonin 5-HT6R = human serotonin 5-HT6R (Homo sapiens, UniProt P50406); assay: Radioligand binding, [3H]-LSD displacement; details: Fig. 2; read-out: pKi 5-HT6 (converted)
# Sequence of human serotonin 5-HT6R (P50406 whole entry): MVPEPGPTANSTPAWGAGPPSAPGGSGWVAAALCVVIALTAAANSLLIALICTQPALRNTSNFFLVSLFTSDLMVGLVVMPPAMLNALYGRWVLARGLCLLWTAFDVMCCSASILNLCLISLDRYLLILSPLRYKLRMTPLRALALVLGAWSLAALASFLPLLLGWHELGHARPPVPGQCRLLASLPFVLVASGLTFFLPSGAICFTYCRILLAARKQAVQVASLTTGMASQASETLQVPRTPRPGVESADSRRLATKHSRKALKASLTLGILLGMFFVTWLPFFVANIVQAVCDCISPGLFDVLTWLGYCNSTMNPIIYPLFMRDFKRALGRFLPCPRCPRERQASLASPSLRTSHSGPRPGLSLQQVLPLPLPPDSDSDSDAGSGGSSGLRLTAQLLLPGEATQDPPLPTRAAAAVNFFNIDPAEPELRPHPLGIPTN
# human serotonin 5-HT7bR = human serotonin 5-HT7bR (Homo sapiens, UniProt P34969); assay: Radioligand binding, [3H]-5-CT displacement
# Sequence of human serotonin 5-HT7bR (P34969 1-432 limits assumed): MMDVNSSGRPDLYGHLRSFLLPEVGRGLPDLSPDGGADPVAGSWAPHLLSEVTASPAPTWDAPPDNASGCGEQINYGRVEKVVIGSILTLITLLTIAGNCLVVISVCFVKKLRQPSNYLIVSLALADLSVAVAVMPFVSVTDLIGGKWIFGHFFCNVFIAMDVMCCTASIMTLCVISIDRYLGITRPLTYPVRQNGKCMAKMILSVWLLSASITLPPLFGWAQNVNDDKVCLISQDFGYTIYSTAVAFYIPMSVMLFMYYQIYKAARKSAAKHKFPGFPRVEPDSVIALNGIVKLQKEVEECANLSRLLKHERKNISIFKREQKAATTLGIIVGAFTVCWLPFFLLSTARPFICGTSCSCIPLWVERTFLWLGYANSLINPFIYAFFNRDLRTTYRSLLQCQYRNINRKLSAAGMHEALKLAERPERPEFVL
# human dopamine D2LR = human dopamine D2LR (Homo sapiens, UniProt P14416); assay: Radioligand binding, [3H]-raclopride displacement; details: Fig. 2; read-out: pKi D2 (converted)
# Sequence of human dopamine D2LR (P14416 whole entry): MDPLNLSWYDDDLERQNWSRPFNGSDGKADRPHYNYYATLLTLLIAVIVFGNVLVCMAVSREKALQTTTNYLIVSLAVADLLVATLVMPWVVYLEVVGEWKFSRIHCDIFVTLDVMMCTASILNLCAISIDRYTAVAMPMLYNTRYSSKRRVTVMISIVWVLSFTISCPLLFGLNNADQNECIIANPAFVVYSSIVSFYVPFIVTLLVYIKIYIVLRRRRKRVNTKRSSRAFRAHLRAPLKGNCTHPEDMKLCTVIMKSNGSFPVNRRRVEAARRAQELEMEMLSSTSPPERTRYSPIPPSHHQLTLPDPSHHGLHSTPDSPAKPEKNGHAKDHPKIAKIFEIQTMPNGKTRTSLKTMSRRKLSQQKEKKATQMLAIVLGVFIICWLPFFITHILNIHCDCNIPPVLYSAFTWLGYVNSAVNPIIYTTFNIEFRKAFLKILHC
# human 5-HT7 receptor = human 5-HT7 receptor (Homo sapiens, UniProt P34969); assay: Functional assay, cAMP production (TR-FRET) in HEK293 cells overexpressing 5-HT7R; assay type: cell-based; details: for pEC50: hydrochloride salts
# Sequence of human 5-HT7 receptor (P34969 1-432 limits assumed): as the sequence (P34969 1-432 limits assumed) above
# [2] = Metabolic stability in human liver microsomes; assay type: in vitro ADME
# Experimental: The in vitro evaluation of metabolic stability was performed by using human liver microsomes
# (HLMs) (Sigma-Aldrich, St. Louis, MO, USA). The reaction mixtures consisted of 50 μM of tested
# compounds with microsomes (1 mg/ml) in 10 mM tris-HCl buffer.
# preincubation, the 50 µL of NADPH Regeneration System (Promega, Madison, WI, USA) was
# added to initiate the reaction. The reactions were terminated by the addition of the cold methanol
# The mixtures were centrifuged
# The course of reaction was followed by using the
# analyte/IS peak height ratio values.
# Mass spectra were recorded on a UPLC-MS/MS system consisted of a Waters ACQUITY® UPLC® (Waters Corporation, Milford, MA, USA) coupled to a Waters TQD mass spectrometer
# (electrospray ionization mode ESI-tandem quadrupole). Chromatographic separations were carried
# particle size, equipped with Acquity UPLC BEH C18 VanGuard pre-column; 2.1 × 5 mm, and
# The column was maintained at 40 °C, and eluted under gradient conditions
# acid (0.1%, v/v); eluent B: acetonitrile/formic acid (0.1%, v/v). Chromatograms were made using
# sampling rate 20 points/s. MS detection settings of Waters TQD mass spectrometer were as
# 600 L h−1, cone gas flow 100 L h−1, capillary potential 3.00 kV, cone potential 40 V. Nitrogen was
# used for both nebulizing and drying gas. The data were obtained in a scan mode ranging from 50 to
# 2000 m/z in time 1.0 s intervals. Data acquisition software was MassLynx V 4.1 (Waters). The
# α1 = assay: Eurofins Cerep binding screen α1; details: 10^−6 M
# α2C = biological target: T3, α2C (Homo sapiens, UniProt P18825); assay: Eurofins Cerep binding screen α2C; details: 10^−6 M; read-out: % Inhibition of control binding α2C
# T3 construct: Eurofins Cerep (contract screen)
# T3 sequence (P18825 1-462): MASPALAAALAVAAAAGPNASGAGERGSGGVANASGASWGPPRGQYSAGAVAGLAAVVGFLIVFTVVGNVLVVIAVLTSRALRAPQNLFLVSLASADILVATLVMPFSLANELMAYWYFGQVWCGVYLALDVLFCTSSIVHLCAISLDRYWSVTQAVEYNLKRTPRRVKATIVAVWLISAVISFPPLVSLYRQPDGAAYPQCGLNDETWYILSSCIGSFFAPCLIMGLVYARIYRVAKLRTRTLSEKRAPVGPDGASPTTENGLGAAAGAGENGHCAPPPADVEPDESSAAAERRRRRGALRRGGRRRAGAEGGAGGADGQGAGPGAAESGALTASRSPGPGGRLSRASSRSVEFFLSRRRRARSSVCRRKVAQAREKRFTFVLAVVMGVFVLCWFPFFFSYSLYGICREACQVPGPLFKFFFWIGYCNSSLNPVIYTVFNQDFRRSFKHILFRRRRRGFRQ
# CB1 = biological target: T4, CB1 (Homo sapiens, UniProt P21554); assay: Eurofins Cerep binding screen CB1; details: 10^−6 M; read-out: % Inhibition of control binding CB1
# T4 construct: Eurofins Cerep (contract screen)
# T4 sequence (P21554 whole entry, species assumed): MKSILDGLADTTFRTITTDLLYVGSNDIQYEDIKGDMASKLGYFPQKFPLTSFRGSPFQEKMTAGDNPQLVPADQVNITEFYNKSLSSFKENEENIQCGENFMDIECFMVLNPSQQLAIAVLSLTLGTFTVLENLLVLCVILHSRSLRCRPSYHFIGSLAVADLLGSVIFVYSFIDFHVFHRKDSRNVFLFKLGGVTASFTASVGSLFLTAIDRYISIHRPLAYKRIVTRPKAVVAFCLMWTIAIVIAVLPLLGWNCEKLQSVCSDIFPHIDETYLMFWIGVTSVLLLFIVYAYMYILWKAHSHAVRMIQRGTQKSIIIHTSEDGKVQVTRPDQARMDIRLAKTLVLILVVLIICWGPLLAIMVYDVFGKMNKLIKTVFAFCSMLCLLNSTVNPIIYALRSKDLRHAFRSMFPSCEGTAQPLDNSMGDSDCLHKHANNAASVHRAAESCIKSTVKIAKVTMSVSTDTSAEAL
# D3 = biological target: T5, D3 (Homo sapiens, UniProt P35462); assay: Eurofins Cerep binding screen D3; details: 10^−6 M; read-out: % Inhibition of control binding D3
# T5 construct: Eurofins Cerep (contract screen)
# T5 sequence (P35462 whole entry): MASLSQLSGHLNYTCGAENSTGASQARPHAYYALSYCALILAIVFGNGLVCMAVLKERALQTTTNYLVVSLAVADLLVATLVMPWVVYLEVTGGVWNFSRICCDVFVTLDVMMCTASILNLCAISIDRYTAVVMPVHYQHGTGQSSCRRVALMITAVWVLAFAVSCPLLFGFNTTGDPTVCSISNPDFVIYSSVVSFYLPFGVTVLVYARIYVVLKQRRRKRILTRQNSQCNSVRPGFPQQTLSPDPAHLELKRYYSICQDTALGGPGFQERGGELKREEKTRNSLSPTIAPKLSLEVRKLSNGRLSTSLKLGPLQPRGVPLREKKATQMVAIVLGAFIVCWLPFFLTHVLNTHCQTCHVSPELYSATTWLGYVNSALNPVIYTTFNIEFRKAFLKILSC
# H1 = biological target: T6, H1 (Homo sapiens, UniProt P35367); assay: Eurofins Cerep binding screen H1; details: 10^−6 M; read-out: % Inhibition of control binding H1
# T6 construct: Eurofins Cerep (contract screen)
# T6 sequence (P35367 whole entry): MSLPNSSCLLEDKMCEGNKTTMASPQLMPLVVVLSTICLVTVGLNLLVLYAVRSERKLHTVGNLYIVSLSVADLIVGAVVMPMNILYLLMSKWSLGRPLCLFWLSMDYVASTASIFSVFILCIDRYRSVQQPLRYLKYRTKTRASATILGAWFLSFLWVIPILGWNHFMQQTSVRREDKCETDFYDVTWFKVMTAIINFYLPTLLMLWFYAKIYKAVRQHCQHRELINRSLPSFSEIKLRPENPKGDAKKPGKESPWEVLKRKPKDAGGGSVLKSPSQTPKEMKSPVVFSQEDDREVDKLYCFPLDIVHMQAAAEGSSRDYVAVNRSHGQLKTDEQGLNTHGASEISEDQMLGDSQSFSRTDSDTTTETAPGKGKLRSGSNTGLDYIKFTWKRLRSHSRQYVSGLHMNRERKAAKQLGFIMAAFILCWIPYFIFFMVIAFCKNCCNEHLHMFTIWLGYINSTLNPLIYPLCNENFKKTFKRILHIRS
# 5-HT1B = biological target: T7, 5-HT1B (Homo sapiens, UniProt P28222); assay: Eurofins Cerep binding screen 5-HT1B; details: 10^−6 M; read-out: % Inhibition of control binding 5-HT1B
# T7 construct: Eurofins Cerep (contract screen)
# T7 sequence (P28222 whole entry, species assumed): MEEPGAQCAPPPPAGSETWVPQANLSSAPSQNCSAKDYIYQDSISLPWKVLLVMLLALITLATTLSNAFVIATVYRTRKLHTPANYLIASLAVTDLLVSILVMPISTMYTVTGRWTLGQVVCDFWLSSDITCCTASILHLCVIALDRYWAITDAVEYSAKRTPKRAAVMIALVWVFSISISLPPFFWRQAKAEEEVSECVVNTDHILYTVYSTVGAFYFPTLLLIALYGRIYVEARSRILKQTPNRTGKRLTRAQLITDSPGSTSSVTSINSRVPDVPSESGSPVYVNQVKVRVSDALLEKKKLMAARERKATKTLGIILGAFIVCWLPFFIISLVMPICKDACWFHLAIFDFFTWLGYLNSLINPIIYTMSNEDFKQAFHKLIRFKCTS
# 5-HT2B = biological target: T8, 5-HT2B (Homo sapiens, UniProt P41595); assay: Eurofins Cerep binding screen 5-HT2B; details: read-out: % Inhibition of control binding 5-HT2B
# T8 construct: Eurofins Cerep (contract screen)
# T8 sequence (P41595 whole entry, species assumed): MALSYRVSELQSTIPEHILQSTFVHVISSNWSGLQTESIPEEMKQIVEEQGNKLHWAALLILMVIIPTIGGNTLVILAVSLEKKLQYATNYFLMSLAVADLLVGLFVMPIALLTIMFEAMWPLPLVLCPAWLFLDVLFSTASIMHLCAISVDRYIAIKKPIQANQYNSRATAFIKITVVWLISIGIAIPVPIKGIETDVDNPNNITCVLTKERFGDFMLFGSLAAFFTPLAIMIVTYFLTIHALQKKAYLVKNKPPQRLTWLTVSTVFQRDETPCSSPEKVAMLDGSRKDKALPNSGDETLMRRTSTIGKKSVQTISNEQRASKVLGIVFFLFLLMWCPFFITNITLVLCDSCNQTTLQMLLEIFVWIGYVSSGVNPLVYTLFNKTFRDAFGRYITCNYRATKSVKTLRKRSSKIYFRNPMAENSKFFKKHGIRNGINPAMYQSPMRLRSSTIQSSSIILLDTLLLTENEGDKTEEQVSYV
# 5-HT5A = biological target: T9, 5-HT5A (Homo sapiens, UniProt P47898); assay: Eurofins Cerep binding screen 5-HT5A; details: 10^−6 M; read-out: % Inhibition of control binding 5-HT5A
# T9 construct: Eurofins Cerep (contract screen)
# T9 sequence (P47898 whole entry, species assumed): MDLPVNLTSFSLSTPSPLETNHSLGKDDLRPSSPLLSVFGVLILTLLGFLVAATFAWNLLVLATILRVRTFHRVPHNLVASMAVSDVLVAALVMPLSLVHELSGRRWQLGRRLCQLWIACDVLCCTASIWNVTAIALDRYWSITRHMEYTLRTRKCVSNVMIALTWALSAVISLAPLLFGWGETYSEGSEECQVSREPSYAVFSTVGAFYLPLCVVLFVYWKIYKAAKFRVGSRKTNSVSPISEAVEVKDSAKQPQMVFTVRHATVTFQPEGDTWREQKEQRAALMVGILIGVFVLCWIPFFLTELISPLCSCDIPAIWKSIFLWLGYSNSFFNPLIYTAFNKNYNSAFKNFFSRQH
# HEK-293 cells = assay: MTS cytotoxicity assay HEK-293; assay type: cell-based, human; details: 72 h incubation, 0.1–100 μM
# Experimental: (§1) The cell line was cultured in Dulbecco’s Modified Eagle’s Medium DMEM (Gibco) with 10% fetal bovine
# (§2) The cells were cultured in Modified Eagle’s Medium
# (§3) MEM with 100 mg/ml streptomycin and 100 U/ml penicillin, 1%, Non Essential Amino Acids (NEAA) and
# (§4) solutions of examined compounds in DMSO were diluted into fresh growth medium and added into the
# (§5) microplates at the final concentrations 0.1 μM – 100 μM. The well-known cytostatic compound
# (§6) doxorubicin (DX) 1 μM was used as a positive control for both cell lines. Additionally, carbonyl cyanide
# (§7) 3-chlorophenylhydrazone (CCCP) 10 μM was used as positive control mitochondrial toxin for hepatocytes.
# (§8) Proliferation Assay, Promega) was added to the each well and the cells were incubated under the same
# (§9) conditions for 4 h. The absorbance of the samples was measured using a microplate reader (PerkinElmer) at
# HepG2 cells = assay: MTS cytotoxicity assay HepG2; assay type: cell-based; details: 72 h incubation, 0.1–100 μM
# Experimental: as §1, §2, §3, §4, §5, §6, §7, §8, §9
# [3] = Water solubility (statement); assay type: physicochemical
# CYP3A4 [4] = biological target: T10, CYP3A4 (Homo sapiens, UniProt P08684); assay: in vitro; details: CYP3A4 enzyme (Promega P450-Glo luminescent assay)
# T10 sequence (P08684 whole entry): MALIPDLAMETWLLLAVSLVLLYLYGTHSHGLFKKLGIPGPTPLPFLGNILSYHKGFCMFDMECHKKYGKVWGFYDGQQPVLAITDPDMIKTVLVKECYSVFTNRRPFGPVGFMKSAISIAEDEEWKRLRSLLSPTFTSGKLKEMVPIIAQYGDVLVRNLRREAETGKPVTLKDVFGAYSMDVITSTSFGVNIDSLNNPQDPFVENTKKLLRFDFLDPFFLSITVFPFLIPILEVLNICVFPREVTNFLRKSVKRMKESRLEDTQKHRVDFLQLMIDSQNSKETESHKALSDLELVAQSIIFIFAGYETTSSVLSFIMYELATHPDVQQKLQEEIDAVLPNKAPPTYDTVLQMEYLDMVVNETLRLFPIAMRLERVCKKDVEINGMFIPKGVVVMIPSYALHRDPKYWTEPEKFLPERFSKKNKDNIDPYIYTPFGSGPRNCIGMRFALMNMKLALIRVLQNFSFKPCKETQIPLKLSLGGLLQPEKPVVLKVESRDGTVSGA
# Experimental: (§10) Drug-drug interactions (DDI) – the influence on CYP3A4 activity
# (§11) The luminescent CYP3A4 P450-Glo™ assay and protocol were provided by Promega (Madison, WI, USA)
# (§12) was obtained from Sigma-Aldrich (St. Louis, USA). The enzymatic reactions were performed in white
# (§13) polystyrene, flat-bottom Nunc™ MicroWell™ 96-Well Microplates (Thermo Scientific, Waltham, MA
# (§14) USA). The luminescence signal was measured with a microplate reader in luminescence mode (EnSpire,
# PerkinElmer, Waltham, MA USA).
# The final concentrations of 1e and
# to calculate IC50 values.
# CYP3A4 [5] = biological target: T10, CYP3A4; assay: biochemical
# Experimental: as §10, §11, §12, §13, §14
# PerkinElmer, Waltham, MA USA).
# The final concentrations of 1e and
# to calculate IC50 values.
Structure (SMILES),Ki (human serotonin 5-HT1AR),Ki [1],Ki (human serotonin 5-HT6R),selectivity over 5-HT1AR (human serotonin 5-HT7bR),Ki (human dopamine D2LR),melting point,function at the human 5-HT7 receptor (human 5-HT7 receptor),pEC50 (human 5-HT7 receptor),pKi (human serotonin 5-HT7bR; read-out: K i (5-HT7R)),further results
Cn1cncc1-c1c[nH]c2ccccc12 [1a],4470 nM,6920 nM,3390 nM,> 11 fold,6920 nM,88 to 90 °C,–,–,–,pKi (human serotonin 5-HT7bR; read-out: Ki 5-HT7): 6.41
COc1ccc2[nH]cc(-c3cncn3C)c2c1 [1b],851 nM,3390 nM,2400 nM,> 11 fold,> 10000 nM,236 °C,full agonists,6.82,–,"Ki (human serotonin 5-HT7bR; Table 1, the head of this column prints no unit, nM, read-out: K i (5-HT7R)): 55 nM"
"CCn1cncc1-c1c[nH]c2ccc(OC)cc12.Cl [1e, 3-(1-Ethyl-1H-imidazol-5-yl)-5-methoxy-1H-indole hydrochloride]",–,–,–,–,–,–,full agonists,7.22,7.52,"main metabolic pathway ([2]; MS of metabolite M1): hydroxylation; CLint scaled at 50 μM ([2]; human, read-out: Clint, metabolic clearance): 3.69 mL/min/kg; % Inhibition of control binding α1 (α1): 5%; inhibition at 1 µM (α2C): 9%; inhibition at 1 µM (CB1): 8%; inhibition at 1 µM (D3): 8%; inhibition at 1 µM (H1): 6%; inhibition at 1 µM (5-HT1B): 24%; inhibition at 1 µM (5-HT2B; 10^−6 M (1 µM)): 93%; inhibition at 0.01 µM (5-HT2B; 10^−8 M (10 nM)): 6%; inhibition at 1 µM (5-HT5A): 9%; cell viability in words, HEK-293 (HEK-293 cells): the cells remained viable in all tested concentrations; cell viability in words, HepG2 (HepG2 cells): the cells remained viable in all tested concentrations; water solubility in words [3]: water soluble; pIC50 (CYP3A4 [4]): 6.62; pIC50 (CYP3A4 [5]): 6.57"
CCn1cncc1-c1c[nH]c2ccc(Cl)cc12 [1m],–,–,–,–,–,–,full agonists,6.83,7.38,–
CCn1cncc1-c1c[nH]c2ccc(Br)cc12 [1n],–,–,–,–,–,–,full agonists,6.81,7.70,–
